# US8722849B2, “Polypeptides” (Novo Nordisk A/S, priority 2011, dated 2014)
# Like-named read-outs stand apart in the source and are kept apart here. Starred links: 1 amine or outer side, 2 acyl side, 3 side chain; linkers in the order of their positions; H or OH if unused. Positions of bridges follow the written chain, without caps; N, C: chain ends. Residues, ends and D or L forms follow the SMILES beside them. Groups on a side chain read outwards from the residue. *: point of attachment. C20 diacid = O=C(O)CCCCCCCCCCCCCCCCCCC(=O)*; γGlu = O=C(O)[C@H](CCC(=O)[*:2])N[*:1]; AEEA = NCCOCCOCC(=O)O
# Experiment: Assay (IV) determination of solubility
# Assay type: physicochemical
# Procedure, shortened: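 Stock ~500 nmol/ml in water; 1:1 with 100 mM buffer, pH 3.0–8.0 (glycylglycine ≤5.0, bistrispropane ≥6.0); 18 h RT; spin; HPLC quantitation of soluble polypeptide.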
# [1] = pH 3, pH 3.0, read-out: Solubility pH 3.0
# [2] = pH 4, pH 4.0, read-out: Solubility pH 4.0
# [3] = pH 5, pH 5.0, read-out: Solubility pH 5.0
# [4] = pH 6, pH 6.0, read-out: Solubility pH 6.0
# [5] = pH 6.5, pH 6.5, read-out: Solubility pH 6.5
# [6] = pH 7, pH 7.0, read-out: Solubility pH 7.0
# [7] = pH 7.5, pH 7.5, read-out: Solubility pH 7.5
# [8] = pH 4, pH 4.0, 18 hours at room temperature, Table 2, read-out: Solubility pH 4.0
# [9] = pH 7, pH 7.0, 18 hours at room temperature, Table 3, read-out: Solubility pH 7.0
# [10] = pH 8, pH 8.0, read-out: Solubility pH 8.0
Structure (SMILES),solubility [1],solubility [2],solubility [3],solubility [4],solubility [5],solubility [6],solubility [7],solubility [8],solubility [9],solubility [10]
"CC[C@H](C)[C@H](NC(=O)[C@@H]1CCCN1C(=O)CNC(=O)[C@H](Cc1ccccc1)NC(=O)[C@H](CC(N)=O)NC(=O)[C@H](CCCCNC(=O)COCCOCCNC(=O)COCCOCCNC(=O)CC[C@H](NC(=O)CCCCCCCCCCCCCCCCCCC(=O)O)C(=O)O)NC(=O)[C@H](CO)NC(=O)[C@H](CO)NC(=O)[C@H](Cc1c[nH]cn1)NC(=O)[C@H](Cc1c[nH]cn1)NC(=O)[C@H](CC(C)C)NC(=O)[C@H](Cc1ccccc1)NC(=O)[C@H](CC(N)=O)NC(=O)[C@H](C)NC(=O)[C@H](CC(C)C)NC(=O)[C@H](CCCNC(=N)N)NC(=O)[C@H](CCC(N)=O)NC(=O)[C@@H](NC(=O)[C@H](C)NC(=O)[C@@H]1CSSC[C@H](NC(=O)[C@@H](N)CCCCN)C(=O)N[C@@H](CC(N)=O)C(=O)N[C@@H]([C@@H](C)O)C(=O)N[C@@H](C)C(=O)N[C@@H]([C@@H](C)O)C(=O)N1)[C@@H](C)O)C(=O)N[C@@H](CC(C)C)C(=O)N[C@@H](CO)C(=O)N1CCC[C@H]1C(=O)N[C@H](C(=O)N[C@@H](CC(N)=O)C(=O)N[C@H](C(=O)NCC(=O)N[C@@H](CO)C(=O)N[C@@H](Cc1c[nH]cn1)C(=O)N[C@H](C(=O)N[C@@H](Cc1ccc(O)cc1)C(N)=O)[C@@H](C)O)C(C)C)[C@@H](C)O [Example 141, N-epsilon21-[2-(2-{2-[2-(2-{2-[(S)-4-Carboxy-4-(19-carboxyheptadecanoylamino)butyrylamino]ethoxy}ethoxy)acetylamino]ethoxy}ethoxy)acetyl]-[His17,Lys21,Ser28,His35]-pramlintide] (H-KCNTATCATQRLANFLHHSSK([AEEA-AEEA-γGlu-C20 diacid])NFGPILSPTNVGSHTY-NH2; disulfide 2-7)",> 200 µM,> 200 µM,> 200 µM,84 µM,3 µM,2 µM,1 µM,,,
"CC[C@H](C)[C@H](NC(=O)[C@@H]1CCCN1C(=O)CNC(=O)[C@H](Cc1ccccc1)NC(=O)[C@H](CC(N)=O)NC(=O)[C@H](CCCCNC(=O)COCCOCCNC(=O)COCCOCCNC(=O)CC[C@H](NC(=O)CCCCCCCCCCCCCCCCCCC(=O)O)C(=O)O)NC(=O)[C@H](CO)NC(=O)[C@H](CO)NC(=O)[C@H](Cc1c[nH]cn1)NC(=O)[C@H](Cc1c[nH]cn1)NC(=O)[C@H](CC(C)C)NC(=O)[C@H](Cc1ccccc1)NC(=O)[C@H](CCC(=O)O)NC(=O)[C@H](C)NC(=O)[C@H](CC(C)C)NC(=O)[C@H](CCCNC(=N)N)NC(=O)[C@H](CCC(N)=O)NC(=O)[C@@H](NC(=O)[C@H](C)NC(=O)[C@@H]1CSSC[C@H](NC(=O)[C@@H](N)CCCCN)C(=O)N[C@@H](CC(N)=O)C(=O)N[C@@H]([C@@H](C)O)C(=O)N[C@@H](C)C(=O)N[C@@H]([C@@H](C)O)C(=O)N1)[C@@H](C)O)C(=O)N[C@@H](CC(C)C)C(=O)N[C@@H](CO)C(=O)N1CCC[C@H]1C(=O)N[C@H](C(=O)N[C@@H](CC(N)=O)C(=O)N[C@H](C(=O)NCC(=O)N[C@@H](CO)C(=O)N[C@@H](Cc1c[nH]cn1)C(=O)N[C@H](C(=O)N[C@@H](Cc1ccc(O)cc1)C(N)=O)[C@@H](C)O)C(C)C)[C@@H](C)O [Example 144, N-epsilon21-[2-(2-{2-[2-(2-{2-[(S)-4-Carboxy-4-(19-carboxyheptadecanoylamino)butyrylamino]ethoxy}ethoxy)acetylamino]ethoxy}ethoxy)acetyl]-[Glu14,His17,Lys21,Ser28,His35]-pramlintide] (H-KCNTATCATQRLAEFLHHSSK([AEEA-AEEA-γGlu-C20 diacid])NFGPILSPTNVGSHTY-NH2; disulfide 2-7)",> 200 µM,> 200 µM,> 200 µM,47 µM,2 µM,1 µM,1 µM,> 200 µM,,
"CC[C@H](C)[C@H](NC(=O)[C@@H]1CCCN1C(=O)CNC(=O)[C@H](Cc1ccccc1)NC(=O)[C@H](CCC(N)=O)NC(=O)[C@H](CCC(N)=O)NC(=O)[C@H](CO)NC(=O)[C@H](CO)NC(=O)[C@H](Cc1c[nH]cn1)NC(=O)[C@H](CCCNC(=N)N)NC(=O)[C@H](CC(C)C)NC(=O)[C@H](Cc1ccccc1)NC(=O)[C@H](CCC(=O)O)NC(=O)[C@H](C)NC(=O)[C@H](CC(C)C)NC(=O)[C@H](CCCNC(=N)N)NC(=O)[C@H](CCC(N)=O)NC(=O)[C@@H](NC(=O)[C@H](C)NC(=O)[C@@H]1CSSC[C@H](NC(=O)[C@H](CCCNC(=N)N)NC(=O)[C@H](CCC(=O)O)NC(=O)[C@H](CCC(=O)O)NC(=O)CC[C@H](NC(=O)CCCCCCCCCCCCCCCCCCC(=O)O)C(=O)O)C(=O)N[C@@H](CC(N)=O)C(=O)N[C@@H]([C@@H](C)O)C(=O)N[C@@H](C)C(=O)N[C@@H]([C@@H](C)O)C(=O)N1)[C@@H](C)O)C(=O)N[C@@H](CC(C)C)C(=O)N1CCC[C@H]1C(=O)N1CCC[C@H]1C(=O)N[C@H](C(=O)N[C@@H](CCC(N)=O)C(=O)N[C@H](C(=O)NCC(=O)N[C@@H](CO)C(=O)N[C@@H](CCC(N)=O)C(=O)N[C@H](C(=O)N1CCC[C@H]1C(N)=O)[C@@H](C)O)C(C)C)[C@@H](C)O [Example 160, N-alpha-[(S)-4-Carboxy-4-(19-carboxynonadecanoylamino)butyryl]-Glu-Glu-[Arg1,Glu14,Arg17,Gln21,Gln22,Gln31,Gln35,Pro37]-pramlintide] ({C20 diacid-γGlu}-EERCNTATCATQRLAEFLRHSSQQFGPILPPTQVGSQTP-NH2; disulfide 4-9)",> 200 µM,> 200 µM,> 200 µM,> 200 µM,> 200 µM,> 200 µM,> 200 µM,> 200 µM,> 200 µM,> 200 µM
"CC[C@H](C)[C@H](NC(=O)[C@@H]1CCCN1C(=O)CNC(=O)[C@H](Cc1ccccc1)NC(=O)[C@H](CC(N)=O)NC(=O)[C@H](CCCCNC(=O)COCCOCCNC(=O)COCCOCCNC(=O)CC[C@H](NC(=O)CCCCCCCCCCCCCCCCCCC(=O)O)C(=O)O)NC(=O)[C@H](CO)NC(=O)[C@H](CO)NC(=O)[C@H](Cc1c[nH]cn1)NC(=O)[C@@H](NC(=O)[C@H](CC(C)C)NC(=O)[C@H](Cc1ccccc1)NC(=O)[C@H](CCC(=O)O)NC(=O)[C@H](C)NC(=O)[C@H](CC(C)C)NC(=O)[C@H](CCCNC(=N)N)NC(=O)[C@H](CCC(N)=O)NC(=O)[C@@H](NC(=O)[C@H](C)NC(=O)[C@@H]1CSSC[C@H](NC(=O)[C@@H](N)CCCCN)C(=O)N[C@@H](CC(N)=O)C(=O)N[C@@H]([C@@H](C)O)C(=O)N[C@@H](C)C(=O)N[C@@H]([C@@H](C)O)C(=O)N1)[C@@H](C)O)C(C)C)C(=O)N[C@@H](CC(C)C)C(=O)N1CCC[C@H]1C(=O)N[C@@H](CO)C(=O)N[C@H](C(=O)N[C@@H](CC(N)=O)C(=O)N[C@H](C(=O)NCC(=O)N[C@@H](CO)C(=O)N[C@@H](Cc1c[nH]cn1)C(=O)N[C@H](C(=O)N[C@@H](Cc1ccc(O)cc1)C(N)=O)[C@@H](C)O)C(C)C)[C@@H](C)O [Example 127, N-epsilon21-[2-(2-{2-[2-(2-{2-[(S)-4-Carboxy-4-(19-carboxyheptadecanoylamino)butyrylamino]ethoxy}ethoxy)acetylamino]ethoxy}ethoxy)acetyl]-[Glu14,Lys21,Ser29,His35]-pramlintide] (H-KCNTATCATQRLAEFLVHSSK([AEEA-AEEA-γGlu-C20 diacid])NFGPILPSTNVGSHTY-NH2; disulfide 2-7)",> 200 µM,> 200 µM,> 200 µM,> 200 µM,> 200 µM,> 200 µM,> 200 µM,> 200 µM,> 200 µM,> 200 µM
"CC[C@H](C)[C@H](NC(=O)[C@H](CCCCNC(=O)COCCOCCNC(=O)COCCOCCNC(=O)CC[C@H](NC(=O)CCCCCCCCCCCCCCCCCCC(=O)O)C(=O)O)NC(=O)CNC(=O)[C@H](Cc1ccccc1)NC(=O)[C@H](CC(N)=O)NC(=O)[C@H](CO)NC(=O)[C@H](CO)NC(=O)[C@H](CO)NC(=O)[C@H](Cc1c[nH]cn1)NC(=O)[C@H](Cc1c[nH]cn1)NC(=O)[C@H](CC(C)C)NC(=O)[C@H](Cc1ccccc1)NC(=O)[C@H](CCC(=O)O)NC(=O)[C@H](C)NC(=O)[C@H](CC(C)C)NC(=O)[C@H](CCCNC(=N)N)NC(=O)[C@H](CCC(N)=O)NC(=O)[C@@H](NC(=O)[C@H](C)NC(=O)[C@@H]1CSSC[C@H](NC(=O)[C@@H](N)CCCCN)C(=O)N[C@@H](CC(N)=O)C(=O)N[C@@H]([C@@H](C)O)C(=O)N[C@@H](C)C(=O)N[C@@H]([C@@H](C)O)C(=O)N1)[C@@H](C)O)C(=O)N[C@@H](CC(C)C)C(=O)N[C@@H](CO)C(=O)N[C@@H](CO)C(=O)N[C@H](C(=O)N[C@@H](CC(N)=O)C(=O)N[C@H](C(=O)NCC(=O)N[C@@H](CO)C(=O)N[C@@H](Cc1c[nH]cn1)C(=O)N[C@H](C(=O)N[C@@H](Cc1ccc(O)cc1)C(N)=O)[C@@H](C)O)C(C)C)[C@@H](C)O [Example 133, N-epsilon25-[2-(2-{2-[2-(2-{2-[(S)-4-Carboxy-4-(19-carboxyheptadecanoylamino)butyrylamino]ethoxy}ethoxy)acetylamino]ethoxy}ethoxy)acetyl]-[Glu14,His17,Ser21,Lys25,Ser28,Ser29.His35]-pramlintide] (H-KCNTATCATQRLAEFLHHSSSNFGK([AEEA-AEEA-γGlu-C20 diacid])ILSSTNVGSHTY-NH2; disulfide 2-7)",> 200 µM,> 200 µM,107 µM,1 µM,1 µM,1 µM,1 µM,> 200 µM,,
